Test results from paper PMC6691016, “Glycosylation influences activity, stability and immobilization of the feruloyl esterase 1a from Myceliophthora thermophila” (AMB Express, 2019).

Legend:
[1] = biological target: T1, M-Fae (MtFae1a produced in M. thermophila) (Thermothelomyces thermophilus, UniProt G2QND5); experiment: continuous absorbance assay at […] nm, non-linear regression; type: biochemical; details: substrate inhibition constant; free enzyme, 100 mM sodium phosphate pH 7.0, 35 °C; 5% DMSO
T1 construct: gene Fae1a; mature (signal peptide, first 18 residues, removed); homologous over-production in M. thermophila C1; no tag stated; N-glycosylated at Asn117 and Asn179; calculated MW 29506 Da, 31 kDa on SDS-PAGE; homodimer only predicted

[2] = biological target: T2, P-Fae (MtFae1a produced in P. pastoris) (Thermothelomyces thermophilus, UniProt G2QND5); experiment: as above; type: biochemical; details: substrate inhibition constant; free enzyme, 100 mM sodium phosphate pH 7.0, 35 °C; 5% DMSO
T2 construct: gene Fae1a; mature (signal peptide, first 18 residues, removed); secreted from Pichia pastoris GS115 (vector pPNic706); no tag stated; N-glycosylated at Asn117 and Asn179 with larger glycans; calculated MW 29506 Da, 33 kDa on SDS-PAGE; homodimer only predicted
T2 sequence (G2QND5 19-291): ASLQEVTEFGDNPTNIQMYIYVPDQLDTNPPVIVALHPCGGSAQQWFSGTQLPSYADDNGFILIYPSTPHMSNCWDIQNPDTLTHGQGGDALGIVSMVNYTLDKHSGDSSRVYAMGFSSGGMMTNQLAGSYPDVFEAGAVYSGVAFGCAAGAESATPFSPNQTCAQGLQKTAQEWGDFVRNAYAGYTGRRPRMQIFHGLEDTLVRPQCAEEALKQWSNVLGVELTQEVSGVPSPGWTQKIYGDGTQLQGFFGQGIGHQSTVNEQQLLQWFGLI

T1 sequence (G2QND5 19-291): as above

Ksi [1]: 1.46 ± 0.29 mM
Ksi [2]: 1.84 ± 0.28 mM
Structure (SMILES): COC(=O)/C=C/c1ccc(O)cc1 [MpCA, methyl p-coumarate]
